Consider `CSc1nnc(-c2snnc2C)o1`, for which the melting point was determined as 65 °C.
Under `Cc1nnsc1CS(=O)(=O)c1ccccc1` stands 118 °C.
Under `Cc1nnsc1CN.Cl` [Compound No. 220, 5-aminomethyl-4-methyl-1,2,3-thiadiazole hydrochloride] stands above 250 °C; under `COC(=O)c1csc(-c2snnc2-c2ccccc2)n1`, 124 °C; under `COC(=O)/C=C/c1snnc1C` [Compound No. 338, methyl (E)-3-(4-methyl-1,2,3-thiadiazol-5-yl)-2-propenate], 70 °C.
Under `Cc1nnsc1-c1nnc(S)o1` [Compound No. 102, 5-(5-mercapto-1,3,4-oxadiazol-2-yl)-4-methyl-1,2,3-thiadiazole] stands 182 °C; under `COC(=O)/C=C\c1snnc1C` [Compound No. 341, methyl (Z)-3-(4-methyl-1,2,3-thiadiazol-5-yl)-2-propenate], 80 to 85 °C.

The term melting point denotes the temperature of the solid-liquid transition.
